Data: patent US9067960B2, “Hybrid SCFA-hydroxyl-derivatized monosaccharides, methods of synthesis, and methods of treating disorders” (The Johns Hopkins University, priority 2007, dated 2015)
Entries after “also recorded” stand apart in the source; their conditions may differ. One block for each compound: values may come before it.

Key:
sialic acid biosynthesis = test: Total sialic acid production (periodate-resorcinol assay); assay type: cell-based
Method: Jurkat cells (5.0×10^6 cells in 10 mL medium) are incubated a compound of the invention at various concentrations. After three days, the cells (1.0×10^6 cells per sample) are lysed by freeze-thaw cycles (three times). The cell lysates are analyzed by using an adapted version of the periodate-resorcinol assay with the periodic acid oxidation step performed on ice to allow quantification of total (i.e., free monosaccharide plus glycoconjugate-bound) sialic acid. For each assay, a standard curve is obtained using N-acetylneuraminic acid (Pfanstiehl, Waukegan, Ill.) for calibration.

human cancer cells = test: Killing of cancer cells by SCFA-hexosamine hybrid molecules (apoptosis, growth); assay type: cell-based
Text: ManNAc has several attractive features that led us to select it as an hexosamine for use in butyrate-sugar hybrid drug development. First, it is a committed precursor for the sialic acid biosynthetic pathway and has no other known metabolic roles, thereby allowing a specific and unique biochemical pathway to be targeted. Second, uptake of exogenous ManNAc alters flux through the sialic acid biosynthetic pathway and changes sialyltransferase and sialidase activity thereby altering the display of sialic acid on cell surface glycoproteins and glycolipids. Because these sialoglycans modulate apoptosis, it was hypothesized that an n-butyrate prodrug with ManNAc as an active carrier would both “arrest” and “execute” cancer cells via SCFA-mediated cell cycle inhibition and ManNAc-augmented apoptosis, respectively. […]
Jurkat cells (5.0×10^5 per mL) are incubated with PBS and a compound of the invention at […]. After 48 h, the cells are counted, harvested, washed once in fresh medium and plated in a 24-well plate containing various concentrations of sodium butyrate (0-2.0 mM; a stock solution of 200 mM in PBS was used for dilutions and control samples). Cell cultures are maintained and growth is monitored for 15 days as described above under the toxicity and growth inhibition assays. […]

histone deacetylase = test: HDAC inhibitor (SCFA) activity of sugar-delivered butyrate; assay type: cell-based
Text: In this section, we present evidence for the first aspect of our model to describe the bioactivity of the compounds of the invention against cancer cells—namely that sugar-delivered butyrate acts as an HDACi—by a set of three complementary assays. […] Together, these assays provide convincing proof that sugar-delivery n-butyrate retains its characteristic SCFA bioactivity.

transformed cells = settings: cited from earlier work
Jurkat cells [1] = test: Toxicity and growth inhibition assays (cell counts, days 3-15); assay type: cell-based, human
Method: Solutions of the analogs in EtOH (10 mM stock) are coated onto 24-well plates at a range of concentrations from 0-320 μM and ethanol is allowed to evaporate. Jurkat cells (1.0×10^5 cells) in 0.5 mL of medium are plated in each well (day 0). On days 3 and 5, fresh medium (1.0 mL) is added to each well. Cell cultures are mixed by gentle pipetting and 100 μL of cell suspension are taken from each well and counted. On days 7, 9, 11, 13 and 15, 1.0 mL of cell suspension is removed from each well after thorough mixing and fresh medium (1.0 mL) is added. Cells are counted on day 15 and the cell density is plotted as a percentage of control.
In initial assays, Jurkat (human T-lymphoma) cells are incubated with compounds of the invention and growth rates were monitored. The compounds reduce cell proliferation at early time points (days 3 & 5) in a dose dependent manner.

Jurkat cells [2] = test: Surface expression of Sia5Lev: ketone-bearing sialosides by biotin hydrazide, FITC-avidin, flow cytometry; assay type: cell-based, human
Toxicity of MOE analogs = assay type: cell-based
stem cells = test: Control of stem cell fate; assay type: cell-based, human
Text: The combination of the biological activities SCFA- and sugar activities of compounds (such as Bu4ManNAc or l(OH)But3ManNAc is useful for cancer treatment because each of the biological activities of the hybrid molecule have been designed to work in concert against a particular characteristic of cancer. An equally valuable aspect of the current invention, however, is ability to separate the various biological activities of the hybrid molecules—for example it is now possible to maintain flux through a glycosylation pathway and to simultaneously avoid or minimize SCFA effects such as toxicity or changes to gene expression that affect the cellular phenotype under investigation (see FIG. 10). This ability opens the door to the many scenarios where an SCFA is attached to a core sugar towards the sole purpose of increasing the metabolic efficiency of the sugar without triggering biological activities of the SCFA moiety. In this case, non-natural monosaccharide analogs would transit the glycosylation pathways without eliciting unrelated changes to proliferation, apoptosis, or gene expression that would either confound interpretation of the experiment under way or actually lead to deleterious cellular outcomes. […]

function as histone deacetylase inhibitor (HDACi) (histone deacetylase): functioning as an HDACi
SMILES: CCCC(=O)OCC1OC(OC(=O)CCC)C(NC(C)=O)[C@@H](OC(=O)CCC)[C@@H]1OC(=O)CCC (some centres unmarked) [Bu4ManNAc]
sialic acid biosynthesis (sialic acid biosynthesis): activates sialic acid biosynthesis; also recorded: primes sialic acid biosynthesis
cell killing (human cancer cells): ultimately killed the cells
induction of apoptosis (human cancer cells): gains a unique ability to induce apoptosis; also recorded: efficiently induced apoptosis

SMILES: CCCC(=O)O.COc1cccc(C#CCON=C2CN3CCC2C3)c1 (centres unmarked) [n-Butyrate, n-butyrate]
levels needed for bioactivity (transformed cells): up to 50 mM

SMILES: CCCC(=O)OC1O[C@H](CO)[C@@H](OC(=O)CCC)[C@H](OC(=O)CCC)[C@@H]1NC(=O)CCC(C)=O (stereo partly drawn) [compound 13, 1,3,4-tri-O-butanoyl-2-deoxy-2-(4-oxopentanoyl)amino-α,β-D-mannopyranose]
Growth inhibition after 3 days (Jurkat cells [1]): significantly less inhibitory
Surface detection of ketone-bearing sialosides (cell surface ketone labeling) (Jurkat cells [2]): even more efficient at providing cell surface ketone labeling

SMILES: CC(=O)OCC1OC(OC(C)=O)C(NC(=O)CSC(C)=O)C(OC(C)=O)C1OC(C)=O (centres unmarked) [Ac5ManNTGc]
toxicity (Toxicity of MOE analogs): considerable toxicity
fate of stem cells (stem cells): can control the fate of stem cells

SMILES: CCCC(=O)OC1O[C@H](CO)[C@@H](OC(=O)CCC)[C@H](OC(=O)CCC)[C@@H]1NC(C)=O (some centres unmarked) [6(OH)But3ManNAc, 1,3,4-O-Bu3ManNAc]
toxicity (Toxicity of MOE analogs): avoiding toxicity

SMILES: CC(=O)OCC(=O)N[C@@H]1C(OC(C)=O)O[C@H](COC(C)=O)[C@@H](OC(C)=O)[C@@H]1OC(C)=O (some centres unmarked) [Ac5ManNGc]
toxicity (Toxicity of MOE analogs): considerable toxicity
